Consider two molecules from US20200038415A1, “AMINOSTEROL COMPOSITIONS AND METHODS OF USING THE SAME FOR TREATING ERECTILE DYSFUNCTION” (Enterin, Inc., priority 2018, published 2020).

Structures are written as SMILES.

The conditions of data set [1]: in vivo; cited from earlier work.
The conditions of data set [2]: cited from earlier work.
The conditions of data set [3]: prior studies, cited from earlier work.
The conditions of data set [4]: systemic administration; into the duodenum through the biliary tract (in mice); cited from earlier work.
The next data set has as its system mouse models of PD. The settings on record: oral; mice with constipation due to overexpression of human αS (West et al, in preparation); cited from earlier work.
Data set [5] relates to IPANs (intrinsic primary afferent neuron). As to conditions: perfusion through lumen of isolated bowel segment, PD mouse model; cited from earlier work.
A short description of data set [6]: Pharmacokinetics of orally administered squalamine (ENT-01) in Stage 1. In kind it is in vivo, human. The settings on record: oral, active zwitterion. The protocol: PK data were collected on the 10 patients enrolled in Stage 1 and 10 patients enrolled in Stage 2 to determine the extent of systemic absorption. In Stage 1, PK data were obtained at each visit, pre-medication, at 1, 2, 4, 8 and 24 hours (Table 10). In Stage 2, PK was measured on days 1 and 6 of the randomization period pre-medication, at 1, 2, 4 and 8 hours (Table 11).
The mean Cmax, Tmax and T1/2 and AUC of the squalamine ion following squalamine (ENT-01) oral dosing for Stage 1 patients. The PK analyses are only approximate, as the lower limit of the validated concentration range was 10 ng/ml; most of the measured concentrations fell below that value. The mean Cmax, Tmax and T1/2 and AUC of the squalamine ion following squalamine (ENT-01) oral dosing for Stage 2 patients. The PK analyses are only approximate, as the lower limit of the validated concentration range was 0.5 ng/ml.

As to `CC(C)[C@@H](CC[C@@H](C)[C@H]1CC[C@H]2[C@@H]3[C@H](O)C[C@H]4C[C@@H](NCCCNCCCCNCCCN)CC[C@]4(C)[C@H]3CC[C@]12C)OS(=O)(=O)O` [Aminosterol 1436, trodusquemine], the known pharmacological effects result in data set [1] is “reduction in food intake and weight loss”.

Turning to `CC(C)[C@@H](CC[C@@H](C)[C@H]1CC[C@H]2[C@@H]3[C@H](O)C[C@H]4C[C@@H](NCCCNCCCCN)CC[C@]4(C)[C@H]3CC[C@]12C)OS(=O)(=O)O` [squalamine], the “well tolerated intravenous dose” value in data set [2] (dilactate salt, single and repeat intravenous administration, Phase 1 and Phase 2 trials) is given as “at least 300 mg/m^2”. In data set [2] (published clinical trials, systemic administration), the “drug related GI toxicology” value is “has not been reported”. Moreover, the “gastrointestinal motility after intravenous administration” value in data set [3] (intravenous) is listed as “not associated with increased gastrointestinal motility”. Further, in data set [3], the “systemic blood levels, intravenous versus orally administered” value was “one thousand-fold greater”. The known pharmacological effects result in data set [1] is “nausea, vomiting and/or reduced blood pressure”. Also, the clearance and excretion result in data set [4] was “cleared by the liver and excreted as the intact molecule”. The gastro-intestinal motility result with mouse models of PD is given as “stimulates gastro-intestinal motility”. Further, the “effect on IPANs of the ENS” value in data set [5] was “excitation of IPANs”. The systemic absorption result in data set [6] is “not significantly absorbed into the systemic circulation”.
